Results: ChEMBL document CHEMBL4152321, “Synthesis and antiplasmodial activity of glyco-conjugate hybrids of phenylhydrazono-indolinones and glycosylated 1,2,3-triazolyl-methyl-indoline-2,3-diones” (Eur J Med Chem, 2018)

Key:
Plasmodium falciparum [1] = assay: Antiplasmodial activity against chloroquine-sensitive Plasmodium falciparum 3D7 infected in human erythrocytes after 72 hrs by SYBR Green 1 staining based fluorescence assay; format: functional, organism-based; details: 3D7, 72 h
Plasmodium falciparum [2] = assay: Antiplasmodial activity against chloroquine-resistant Plasmodium falciparum K1 infected in human erythrocytes after 72 hrs by SYBR Green 1 staining based fluorescence assay; format: functional, organism-based; details: K1, 72 h
[3] = Cytotoxicity against African green monkey Vero cells after 3 days by resazurin dye based fluorescence assay; format: cell-based; details: chlorocebus sabaeus
[4] = Selectivity index, ratio of CC50 for African green monkey Vero cells to IC50 for chloroquine-sensitive Plasmodium falciparum 3D7 infected in human erythrocytes; format: toxicity, cell-based; details: read-out: Ratio CC50/IC50
[5] = Selectivity index, ratio of CC50 for African green monkey Vero cells to IC50 for chloroquine-resistant Plasmodium falciparum K1 infected in human erythrocytes; format: toxicity, cell-based; details: read-out: Ratio CC50/IC50

Compound	IC50 (Plasmodium falciparum [1]) [µM]	IC50 (Plasmodium falciparum [2]) [µM]	CC50 at 72 h [3] [µM]	selectivity ratio [4]	selectivity ratio [5]
CC(=O)C[C@H]1O[C@@H](On2cc(CN3C(=O)/C(=N\Nc4ccc(F)cc4)c4ccccc43)nn2)[C@H](OC(C)=O)[C@@H](OC(C)=O)[C@@H]1OC(C)=O	2.25	3.8	68.7	30.5	18.1
CC1(C)O[C@H]2[C@@H](O1)[C@@H](Cn1cc(CN3C(=O)/C(=N\Nc4ccc(C#N)cc4)c4ccccc43)nn1)O[C@@H]1OC(C)(C)O[C@@H]12	3.59	2.77	126	34.9	–
N#Cc1ccc(N/N=C2\C(=O)N(Cc3cn(O[C@@H]4O[C@H](CO)[C@@H](O)[C@H](O)[C@H]4O)nn3)c3ccccc32)cc1	7.78	7.01	–	–	–
CC(=O)C[C@H]1O[C@@H](On2cc(CN3C(=O)C(=O)c4ccccc43)nn2)[C@H](OC(C)=O)[C@@H](OC(C)=O)[C@H]1OC(C)=O	8.4	8.07	–	–	–
COc1ccc(N/N=C2\C(=O)N(Cc3cn(O[C@@H]4O[C@H](CC(C)=O)[C@@H](OC(C)=O)[C@H](OC(C)=O)[C@H]4OC(C)=O)nn3)c3ccccc32)cc1	3.05	4.13	95.3	31.2	23.1
CC1(C)O[C@H]2[C@@H](O1)[C@@H](Cn1cc(CN3C(=O)C(=O)c4ccccc43)nn1)O[C@@H]1OC(C)(C)O[C@@H]12	8.41	7.51	–	–	–
O=C1/C(=N\Nc2ccc(Br)cc2)c2ccccc2N1Cc1cn(O[C@@H]2O[C@H](CO)[C@@H](O)[C@H](O)[C@H]2O)nn1	9.34	7.95	–	–	–
O=C1/C(=N\Nc2ccc(F)cc2)c2ccccc2N1Cc1cn(O[C@@H]2O[C@H](CO)[C@@H](O)[C@H](O)[C@H]2O)nn1	8	8.53	–	–	–
CC(=O)C[C@H]1O[C@@H](On2cc(CN3C(=O)/C(=N\Nc4ccccc4)c4ccccc43)nn2)[C@H](OC(C)=O)[C@@H](OC(C)=O)[C@@H]1OC(C)=O	3.73	7.11	108	28.9	15.1
CC(=O)C[C@H]1O[C@@H](On2cc(CN3C(=O)/C(=N\Nc4cccc(Cl)c4)c4ccccc43)nn2)[C@H](OC(C)=O)[C@@H](OC(C)=O)[C@@H]1OC(C)=O	3.96	8.67	117	29.4	13.4
CC1(C)O[C@H]2O[C@H](Cn3cc(CN4C(=O)C(=O)c5ccccc54)nn3)[C@H](O)[C@H]2O1	4.33	3.4	> 200	> 46.2	> 58.8
CC(=O)C[C@H]1O[C@@H](On2cc(CN3C(=O)/C(=N\Nc4ccc(C#N)cc4)c4ccccc43)nn2)[C@H](OC(C)=O)[C@@H](OC(C)=O)[C@@H]1OC(C)=O	3.33	5.72	75.4	22.6	13.2
CC(=O)C[C@H]1O[C@@H](On2cc(CN3C(=O)C(=O)c4ccccc43)nn2)[C@H](OC(C)=O)[C@@H](OC(C)=O)[C@@H]1OC(C)=O	3.54	> 10	137	38.6	< 13.7
CC(=O)C[C@H]1O[C@@H](On2cc(CN3C(=O)/C(=N\Nc4ccc(Br)cc4)c4ccccc43)nn2)[C@H](OC(C)=O)[C@@H](OC(C)=O)[C@@H]1OC(C)=O	3.79	3.84	116	30.7	30.3
O=C1/C(=N\Nc2cccc(Cl)c2)c2ccccc2N1Cc1cn(O[C@@H]2O[C@H](CO)[C@@H](O)[C@H](O)[C@H]2O)nn1	6.73	7.62	–	–	–
CCN(CC)CCCC(C)Nc1ccnc2cc(Cl)ccc12 (configuration not stated) [CHLOROQUINE]	–	–	> 500	–	–
